# Reference: ChEMBL document CHEMBL3875223, “Activation of lysine-specific demethylase 1 inhibitor peptide by redox-controlled cleavage of a traceless linker” (Bioorg Med Chem, 2017)
# Biological target: Lysine-specific histone demethylase 1A (Homo sapiens, UniProt O60341)
# Experiment: Inhibition of human LSD1 assessed as reduction in H2O2 production using H3K4me2 (1 to 20 residues) peptide as substrate preincubated for 10 mins followed by substrate addition measured after 30 mins in presence of DTT by peroxidase coupled enzyme assay
compound,measurement,value
CC(C)C[C@H](NC(=O)[C@H](Cc1ccccc1)NC(=O)[C@H](CO)NC(=O)[C@H](CCCNC(=N)N)NC(=O)[C@@H]1CCCN1C(=O)CO)C(=O)N[C@H](C(=O)N[C@@H](CCCNC(=N)N)C(=O)N[C@@H](CCCCN)C(=O)N1CCC[C@H]1C(=O)N[C@@H](CCCCNC(=O)CO)C(N)=O)C(C)C,Ki,190 µM
